The text below walks through data of patent publication US9676760B2, “Fused heterocyclic compounds as ion channel modulators” (Gilead Sciences, Inc., priority 2011, dated 2017).

Chain of wild-type human cardiac sodium channel, hNav1.5 (Q14524 whole entry): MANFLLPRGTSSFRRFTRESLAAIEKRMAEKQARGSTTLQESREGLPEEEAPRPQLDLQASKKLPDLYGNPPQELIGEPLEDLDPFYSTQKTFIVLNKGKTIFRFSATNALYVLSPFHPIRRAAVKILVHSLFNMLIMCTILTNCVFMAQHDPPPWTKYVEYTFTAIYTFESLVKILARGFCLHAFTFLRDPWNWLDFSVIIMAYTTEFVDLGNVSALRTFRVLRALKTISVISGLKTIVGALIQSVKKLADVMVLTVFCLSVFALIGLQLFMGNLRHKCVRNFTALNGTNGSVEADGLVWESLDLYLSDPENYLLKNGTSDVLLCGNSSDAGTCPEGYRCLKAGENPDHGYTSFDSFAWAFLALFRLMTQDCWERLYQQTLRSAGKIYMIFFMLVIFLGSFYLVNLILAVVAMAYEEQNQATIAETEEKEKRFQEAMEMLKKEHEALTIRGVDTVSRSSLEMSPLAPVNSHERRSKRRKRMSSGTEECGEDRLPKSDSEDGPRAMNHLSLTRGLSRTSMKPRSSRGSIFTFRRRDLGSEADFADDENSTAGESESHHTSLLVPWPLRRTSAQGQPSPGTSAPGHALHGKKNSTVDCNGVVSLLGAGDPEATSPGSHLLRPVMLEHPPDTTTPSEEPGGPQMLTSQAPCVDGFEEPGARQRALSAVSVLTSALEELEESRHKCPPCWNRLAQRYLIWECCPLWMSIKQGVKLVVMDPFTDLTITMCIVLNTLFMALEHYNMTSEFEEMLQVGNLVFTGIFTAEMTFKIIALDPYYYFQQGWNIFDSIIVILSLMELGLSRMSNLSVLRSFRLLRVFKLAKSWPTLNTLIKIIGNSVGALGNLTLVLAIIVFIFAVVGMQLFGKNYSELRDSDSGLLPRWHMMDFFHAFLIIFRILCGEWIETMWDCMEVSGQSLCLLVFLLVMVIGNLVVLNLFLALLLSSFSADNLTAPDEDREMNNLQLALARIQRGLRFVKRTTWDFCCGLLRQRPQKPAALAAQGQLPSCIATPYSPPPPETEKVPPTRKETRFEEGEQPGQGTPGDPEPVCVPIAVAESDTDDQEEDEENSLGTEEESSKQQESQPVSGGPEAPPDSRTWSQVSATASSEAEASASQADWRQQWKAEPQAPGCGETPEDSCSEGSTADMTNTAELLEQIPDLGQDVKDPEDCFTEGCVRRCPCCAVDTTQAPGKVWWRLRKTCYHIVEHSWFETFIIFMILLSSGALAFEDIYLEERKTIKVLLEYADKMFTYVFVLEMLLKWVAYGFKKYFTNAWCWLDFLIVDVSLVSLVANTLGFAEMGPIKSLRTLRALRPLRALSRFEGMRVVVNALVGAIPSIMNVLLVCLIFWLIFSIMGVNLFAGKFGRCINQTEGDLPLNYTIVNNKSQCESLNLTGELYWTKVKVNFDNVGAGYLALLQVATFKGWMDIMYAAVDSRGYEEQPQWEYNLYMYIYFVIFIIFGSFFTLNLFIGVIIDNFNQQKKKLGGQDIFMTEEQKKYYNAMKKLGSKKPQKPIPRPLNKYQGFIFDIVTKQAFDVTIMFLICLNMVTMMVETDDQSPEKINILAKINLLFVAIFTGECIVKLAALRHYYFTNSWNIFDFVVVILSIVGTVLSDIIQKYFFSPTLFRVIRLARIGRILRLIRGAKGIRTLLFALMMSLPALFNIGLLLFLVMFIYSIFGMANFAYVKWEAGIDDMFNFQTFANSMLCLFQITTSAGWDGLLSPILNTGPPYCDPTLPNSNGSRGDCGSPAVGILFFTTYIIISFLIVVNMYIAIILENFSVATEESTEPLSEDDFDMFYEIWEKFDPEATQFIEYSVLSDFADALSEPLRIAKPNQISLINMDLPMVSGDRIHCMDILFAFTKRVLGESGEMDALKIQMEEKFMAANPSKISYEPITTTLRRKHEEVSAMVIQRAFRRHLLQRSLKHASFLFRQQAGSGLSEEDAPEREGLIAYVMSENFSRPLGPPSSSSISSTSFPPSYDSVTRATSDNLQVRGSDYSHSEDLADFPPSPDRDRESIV

One assay addresses wild-type human cardiac sodium channel, hNav1.5 (Homo sapiens, UniProt Q14524). In words: Late INa screening assay (QPatch whole cell patch clamp, HEK293). The assay is classed as cell-based. The following applies: HEK293, percent block of late INa; compound at 1 μM; 10 μM Tefluthrin; read-out: Late INa 1 μM. The method, then:
The late sodium current (Late INa) and peak sodium current (Peak INa) assays are performed on an automated electrophysiology platform, QPatch 16× (Sophion Bioscience, Copenhagen, Denmark), which uses the whole cell patch clamp technique to measure currents through the cell membrane of up to 16 cells at a time. The assay uses an HEK293 (human embryonic kidney) cell line heterologously expressing the wild-type human cardiac sodium channel, hNav1.5, purchased from Millipore (Billerica, Mass.). No beta subunits were coexpressed with the Na channel alpha subunit. Cells are maintained with standard tissue culture procedures and stable channel expression is maintained with 400 μg/mL Geneticin in the culture medium. Cells isolated for use on QPatch are incubated for 5 minutes in Detachin 1×(Genlantis, San Diego, USA) at 37° C. to ensure that 80-90% of the cells are single and not part of a cell cluster. Experiments are carried out at 23-25° C.
For both the Late INa and Peak INa assays, series resistance compensation is set to 100% and series resistance and whole-cell compensation are performed automatically. Currents are digitized at 25 kHz and low-pass filtered at 12 kHz and 10 kHz for the late and peak INa assays, respectively. Currents through open sodium channels are automatically recorded and stored in the Sophion Bioscience Oracle database (Sophion Bioscience, Copenhagen, Denmark). Analysis is performed using QPatch Assay and database software and data are compiled in Excel.
Compound stocks are routinely made by the Gilead Sample Bank in plastic vials to 10 mM in dimethyl sulfoxide (DMSO). In some cases, when compounds are not soluble in DMSO, they are made in 100% ethanol. Stocks are sonicated as necessary. The extracellular solution for screening Late INa is composed of: 140 mM NaCl, 4 mM KCl, 1.8 mM CaCl2, 0.75 mM MgCl2 and 5 mM HEPES with pH adjusted to 7.4 using NaOH. The intracellular solution used to perfuse the inside of the cells for both the Late INa and Peak INa assays contains: 120 mM CsF, 20 mM CsCl, 5 mM EGTA, 5 mM HEPES and pH adjusted to 7.4 with CsOH. Compounds are diluted in extracellular solution to 1 μM in glass vials and then transferred to glass well plates before robotic addition to the cells. The 0 mM Na extracellular solution (0Na-ECF) used at the end of each experiment for the Late INa and Peak INa assays to measure baseline current contains: 140 mM N-methyl-D-glucamine; 4 mM KCl; 1.8 mM CaCl2; 0.75 mM MgCl2; 5 mM HEPES and pH was adjusted to 7.4 with HCl.
For the Late INa assay, sodium channels are activated every 10 seconds (0.1 Hz) by depolarizing the cell membrane to −20 mV for 250 milliseconds (ms) from a holding potential of −120 mV. In response to a −20 mV voltage step, typical hNav1.5 sodium currents activate rapidly to a peak negative current and then inactivate nearly completely within 3-4 ms.
Compounds were tested to determine their activity in blocking the late sodium current. Late INa was generated by adding 10 μM Tefluthrin (pyrethroid) to the extracellular solution while recording Na currents. […] ATX-II and tefluthrin occupy distinct, non-overlapping binding sites and modify Na^+ channel function differently to increase late INa. […] After establishing the whole cell recording configuration, late INa activator is added to each well 4 times over a 16-17 minute period so that the late component of the Na current reaches a stable value.
Results are reported as percent block of late INa.
For orientation: The patch-clamp technique gives a direct electrical read-out from membranes.
As for `CN(C)c1ccnc(CN2CCOc3ccc(-c4ccc(OC(F)(F)F)cc4)cc3C2=O)n1` [II-140, 4-((4-(dimethylamino)pyrimidin-2-yl)methyl)-7-(4-(trifluoromethoxy)phenyl)-3,4-dihydrobenzo[f][1,4]oxazepin-5(2H)-one], the inhibition at 1 µM turned out to be 32%.

With `CCOc1ccc(-c2ccc3c(c2)C(=O)N(Cc2ncccn2)CCO3)cc1` [II-123, 7-(4-ethoxyphenyl)-4-(pyrimidin-2-ylmethyl)-3,4-dihydrobenzo[f][1,4]oxazepin-5(2H)-one], the inhibition at 1 µM worked out at 21%.

In the case of `CC(C)(C)C1CC=C(c2ccc3c(c2)C(=O)N(Cc2ncccn2)CCO3)CC1` (centres unmarked) [Compound V-1, 7-(4-tert-butylcyclohex-1-enyl)-4-(pyrimidin-2-ylmethyl)-3,4-dihydrobenzo[f][1,4]oxazepin-5(2H)-one], the inhibition at 1 µM was 24%.

As to `O=C1c2cc(-c3ccc(F)c(F)c3F)ccc2OCCN1Cc1ncccn1` [II-162, 4-(pyrimidin-2-ylmethyl)-7-(2,3,4-trifluorophenyl)-3,4-dihydrobenzo[f][1,4]oxazepin-5(2H)-one], the inhibition at 1 µM is 20%.

In the case of `Cc1cc(C(=O)N2CCOc3ccc(-c4ccc(OC(F)(F)F)cc4)cc3C2)nn1C` [III-58, (1,5-dimethyl-1H-pyrazol-3-yl)(7-(4-(trifluoromethoxy)phenyl)-2,3-dihydrobenzo[f][1,4]oxazepin-4(5H)-yl)methanone], the inhibition at 1 µM was found to be 26%.

For `C[C@H]1COc2ccc(-c3ccc(C(F)(F)F)cc3)cc2C(=O)N1Cc1ncccn1` [II-12, (S)-3-methyl-4-(pyrimidin-2-ylmethyl)-7-(4-(trifluoromethyl)phenyl)-3,4-dihydrobenzo[f][1,4]oxazepin-5(2H)-one], the inhibition at 1 µM worked out at 21%.

On to `COc1ccnc(CN2CCOc3cnc(-c4ccc(OC(F)(F)F)cc4)cc3C2=O)n1` [XII-14, 4-((4-methoxypyrimidin-2-yl)methyl)-7-(4-(trifluoromethoxy)phenyl)-3,4-dihydropyrido[4,3-f][1,4]oxazepin-5(2H)-one], for which the inhibition at 1 µM amounted to 26%.

On to `O=C1c2cc(-c3ccc(OC(F)(F)F)cc3)ccc2OCCN1CCCS(=O)(=O)N1CCC1` [II-191, 4-(3-(azetidin-1-ylsulfonyl)propyl)-7-(4-(trifluoromethoxy)phenyl)-3,4-dihydrobenzo[f][1,4]oxazepin-5(2H)-one], for which the inhibition at 1 µM amounted to 25%.

`O=C1c2cc(-c3ccc(OC(F)(F)F)cc3)ccc2OCCN1CCN1CCCC1` [II-3, 4-(2-(pyrrolidin-1-yl)ethyl)-7-(4-(trifluoromethoxy)phenyl)-3,4-dihydrobenzo[f][1,4]oxazepin-5(2H)-one]: the inhibition at 1 µM came out at 15%.

With `O=C1c2cc(Nc3ccc(OC(F)(F)F)cc3)ccc2OCCN1Cc1ncccn1` [XIII-1, 4-(pyrimidin-2-ylmethyl)-7-(4-(trifluoromethoxy)phenylamino)-3,4-dihydrobenzo[f][1,4]oxazepin-5(2H)-one], the inhibition at 1 µM was determined as 16%.

Take `O=C1c2cc(-c3ccc(OC(F)(F)F)cc3)ccc2OCCN1Cc1nccc(N2CCCCC2)n1` [II-139, 4-((4-(piperidin-1-yl)pyrimidin-2-yl)methyl)-7-(4-(trifluoromethoxy)phenyl)-3,4-dihydrobenzo[f][1,4]oxazepin-5(2H)-one]: the inhibition at 1 µM amounted to 31%.

Take `O=C1c2cc(-c3ccc(OC(F)(F)F)cc3)ccc2OCCN1Cc1ccc2c(c1)OCCO2` [II-5, 4-((2,3-dihydrobenzo[b][1,4]dioxin-6-yl)methyl)-7-(4-(trifluoromethoxy)phenyl)-3,4-dihydrobenzo[f][1,4]oxazepin-5(2H)-one]: the inhibition at 1 µM is 26%.

As for `O=C1NC(Cc2ccccn2)COc2ccc(-c3ccc(OC(F)(F)F)cc3)cc21` (centres unmarked) [II-142, 3-(pyridin-2-ylmethyl)-7-(4-(trifluoromethoxy)phenyl)-3,4-dihydrobenzo[f][1,4]oxazepin-5(2H)-one], the inhibition at 1 µM turned out to be 19%.

In the case of `C[C@@H]1COc2ccc(-c3ccc(C(F)(F)F)cc3)cc2C(=O)N1Cc1ncccn1` [II-13, (R)-3-methyl-4-(pyrimidin-2-ylmethyl)-7-(4-(trifluoromethyl)phenyl)-3,4-dihydrobenzo[f][1,4]oxazepin-5(2H)-one], the inhibition at 1 µM is 18%.

In the case of `Cc1ccc(-c2ccc3c(c2)C(=O)N(Cc2ncccn2)CCO3)cc1` [II-87, 4-(pyrimidin-2-ylmethyl)-7-p-tolyl-3,4-dihydrobenzo[f][1,4]oxazepin-5(2H)-one], the inhibition at 1 µM worked out at 22%.

As for `COCCN1CCOc2ccc(-c3ccc(OC(F)(F)F)cc3)cc2C1=O` [II-11, 4-(2-methoxyethyl)-7-(4-(trifluoromethoxy)phenyl)-3,4-dihydrobenzo[f][1,4]oxazepin-5(2H)-one], the inhibition at 1 µM came out at 23%.

As to `CN(c1ccc(OC(F)(F)F)cc1)c1ccc2c(c1)C(=O)N(Cc1ncccn1)CCO2` [XIII-10, 7-(methyl(4-(trifluoromethoxy)phenyl)amino)-4-(pyrimidin-2-ylmethyl)-3,4-dihydrobenzo[f][1,4]oxazepin-5(2H)-one], the inhibition at 1 µM was 22%.

Take `O=C1c2cc(-c3ccc(OC(F)(F)F)cc3)ccc2OCCN1Cc1ccc(F)c(F)c1` [II-45, 4-(3,4-difluorobenzyl)-7-(4-(trifluoromethoxy)phenyl)-3,4-dihydrobenzo[f][1,4]oxazepin-5(2H)-one]: the inhibition at 1 µM was found to be 27%.

On to `O=C1c2cc(-c3ccc(C(F)(F)F)cn3)ccc2OCCN1Cc1ccccn1` [VI-26, 4-(pyridin-2-ylmethyl)-7-(5-(trifluoromethyl)pyridin-2-yl)-3,4-dihydrobenzo[f][1,4]oxazepin-5(2H)-one], for which the inhibition at 1 µM was found to be 28%.

On to `Cc1cnc(CN2CCOc3ccc(-c4ccc(OC(F)(F)F)cc4)cc3C2=O)cn1` [II-172, 4-((5-methylpyrazin-2-yl)methyl)-7-(4-(trifluoromethoxy)phenyl)-3,4-dihydrobenzo[f][1,4]oxazepin-5(2H)-one], for which the inhibition at 1 µM was 33%.

On to `CC(C)(C)OC(=O)N[C@@H]1C[C@@H]2COc3ccc(-c4ccc(C(F)(F)F)cc4)cc3C(=O)N2C1` [II-39, tert-butyl (2R,11aR)-5-oxo-7-(4-(trifluoromethyl)phenyl)-1,2,3,5,11,11a-hexahydrobenzo[f]pyrrolo[2,1-c][1,4]oxazepin-2-ylcarbamate], for which the inhibition at 1 µM came out at 16%.

Consider `O=C1c2cc(C#Cc3ccccc3)ccc2OCCN1Cc1ncccn1` [VIII-5, 7-(phenylethynyl)-4-(pyrimidin-2-ylmethyl)-3,4-dihydrobenzo[f][1,4]oxazepin-5(2H)-one], for which the inhibition at 1 µM was determined as 32%.

As for `Cn1cncc1C(=O)N1CCOc2ccc(-c3ccc(C(F)(F)F)cc3)cc2C1` [III-32, (1-methyl-1H-imidazol-5-yl)(7-(4-(trifluoromethyl)phenyl)-2,3-dihydrobenzo[f][1,4]oxazepin-4(5H)-yl)methanone], the inhibition at 1 µM is 22%.

As for `O=C1c2cc(-c3ccc(C(F)(F)F)cc3)ccc2-n2ccnc2CN1Cc1ccccc1` [Compound X-12, 5-benzyl-8-(4-(trifluoromethyl)phenyl)-4H-benzo[f]imidazo[1,2-a][1,4]diazepin-6(5H)-one], the inhibition at 1 µM stood at 26%.

Take `O=C1c2cc(-c3ccc(OC(F)(F)F)cc3)ccc2OCCN1Cc1ncc(-c2ccc(C(F)(F)F)nc2)cn1` [II-115, 7-(4-(trifluoromethoxy)phenyl)-4-((5-(6-(trifluoromethyl)pyridin-3-yl)pyrimidin-2-yl)methyl)-3,4-dihydrobenzo[f][1,4]oxazepin-5(2H)-one]: the inhibition at 1 µM was 21%.

The assay is the same for the next values; noted with them: percent block of late INa; compound at 1 μM; 10 μM Tefluthrin.
For `O=C1c2cc(-c3ccc(C(F)(F)F)cc3)ccc2OCCN1Cc1cn2ccccc2n1` [II-135, 4-(imidazo[1,2-a]pyridin-2-ylmethyl)-7-(4-(trifluoromethyl)phenyl)-3,4-dihydrobenzo[f][1,4]oxazepin-5(2H)-one], the “Late INa 1 μM” value came to 32%.
